Measurements as given in US20240158446A1, “CYCLIC COMPOUND HAVING SELECTIVE INHIBITORY ACTION ON KRAS OVER HRAS AND NRAS” (CHUGAI SEIYAKU KABUSHIKI KAISHA, priority 2021, published 2024).

What was measured:
[1] = molecular target: GDP-bound HRAS wild-type protein (Homo sapiens, UniProt P01112); experiment: Binding to HRAS by surface plasmon resonance (SPR), Single Cycle Kinetics; conditions: SPR, GDP-bound HRAS wild-type protein vs GDP-bound KRAS wild-type protein
[2] = test system: human lung cancer strain NCI-H441;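 note: cell proliferation inhibition after four days measured by CellTiter-Glo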
[3] = molecular target: GDP-bound KRAS wild-type protein (Homo sapiens, UniProt P01116); experiment: Binding to KRAS by surface plasmon resonance (SPR), Single Cycle Kinetics; conditions: SPR, Single Cycle Kinetics, GDP-bound KRAS wild-type protein; read-out: KRAS KD
[4] = molecular target: GDP-bound NRAS wild-type protein (Homo sapiens, UniProt P01111); experiment: Binding to NRAS by surface plasmon resonance (SPR), Single Cycle Kinetics; conditions: SPR, GDP-bound NRAS wild-type protein vs GDP-bound KRAS wild-type protein
GDP-bound NRAS wild-type protein, sequence (P01111 whole entry): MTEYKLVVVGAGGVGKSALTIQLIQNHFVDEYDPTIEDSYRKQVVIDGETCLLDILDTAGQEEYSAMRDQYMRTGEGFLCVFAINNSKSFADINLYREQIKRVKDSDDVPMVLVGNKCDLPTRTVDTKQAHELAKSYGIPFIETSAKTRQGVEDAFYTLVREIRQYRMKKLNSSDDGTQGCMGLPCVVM

GDP-bound HRAS wild-type protein, sequence (P01112 whole entry): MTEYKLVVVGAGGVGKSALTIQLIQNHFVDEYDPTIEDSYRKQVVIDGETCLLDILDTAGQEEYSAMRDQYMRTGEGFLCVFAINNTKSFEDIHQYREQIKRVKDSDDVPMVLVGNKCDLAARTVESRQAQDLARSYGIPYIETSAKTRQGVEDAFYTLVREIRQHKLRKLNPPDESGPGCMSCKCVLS
GDP-bound KRAS wild-type protein, sequence (P01116 whole entry): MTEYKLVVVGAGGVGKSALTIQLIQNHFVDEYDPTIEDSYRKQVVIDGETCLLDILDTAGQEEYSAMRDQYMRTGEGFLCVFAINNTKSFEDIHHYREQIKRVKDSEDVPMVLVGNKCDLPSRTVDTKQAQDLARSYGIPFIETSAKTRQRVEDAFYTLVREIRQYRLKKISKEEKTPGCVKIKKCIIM

Structure (SMILES) | IC50 [2] [nM] | Kd [3] [nM] | HRAS/KRAS (ratio of KD value for HRAS to KD value for KRAS) [1] | NRAS/KRAS (ratio of KD value for NRAS to KD value for KRAS) [4]
CCC(CC)[C@H]1C(=O)N(C)[C@H](C(=O)N(C)C)CC(=O)N(C)[C@@H](COC)C(=O)N[C@@H]([C@@H](C)CC)C(=O)N(C)CC(=O)N(C)[C@H]2C/C=C\CCN(C2=O)[C@@H](CC2CCC(F)(F)CC2)C(=O)N(C)CC(=O)N[C@@H](CCc2ccc(C(F)(F)F)c(OC)c2)C(=O)N2C[C@@H](C)C[C@H]2C(=O)NC2(CC(C)(C)C2)C(=O)N1C [PP2442] | 79.7 | 0.97 | A (a compound having 10 or more and less than 20 is denoted as A) | A (a compound having 10 or more and less than 20 is denoted as A)
CCO[C@@H]1C[C@H]2C(=O)NC3(CC(C)(C)C3)C(=O)N(C)[C@@H](C(CC)CC)C(=O)N(C)[C@H](C(=O)N(C)C)CC(=O)N(C)[C@@H](COC)C(=O)N[C@@H]([C@@H](C)CC)C(=O)N(C)CC(=O)N(C)[C@H]3C/C=C\CCN(C3=O)[C@@H](CC3CCC(F)(F)CC3)C(=O)N(C)CC(=O)N[C@@H](CCc3ccc(C(F)(F)F)c(Cl)c3)C(=O)N2C1 [PP2444] | 32.3 | 0.59 | A (a compound having 10 or more and less than 20 is denoted as A) | A (a compound having 10 or more and less than 20 is denoted as A)
CCOC[C@H]1C(=O)N[C@@H]([C@@H](C)CC)C(=O)N(C)CC(=O)N(C)[C@H]2C/C=C\CCN(C2=O)[C@@H](CC2CCC(F)(F)CC2)C(=O)N(C)CC(=O)N[C@@H](CCc2ccc(C(F)(F)F)c(OC)c2)C(=O)N2C[C@H](OCC)C[C@H]2C(=O)NC2(CC(C)(C)C2)C(=O)N(C)[C@@H](C(CC)CC)C(=O)N(C)[C@H](C(=O)N(C)C)CC(=O)N1C [PP2446] | 124 | 0.81 | A (a compound having 10 or more and less than 20 is denoted as A) | A (a compound having 10 or more and less than 20 is denoted as A)
CCC(CC)[C@H]1C(=O)N(C)[C@H](C(=O)N(C)C)CC(=O)N(C)[C@@H](COC)C(=O)N[C@@H]([C@@H](C)CC)C(=O)N(C)CC(=O)N(C)[C@H]2C/C=C\CCN(C2=O)[C@@H](CC2CCC(F)(F)CC2)C(=O)N(C)CC(=O)N[C@@H](CCc2cc(F)c(C(F)(F)F)c(F)c2)C(=O)N2C[C@@H](C)C[C@H]2C(=O)NC2(CC(C)(C)C2)C(=O)N1C [PP2448] | 26.9 | 1.4 | A (a compound having 10 or more and less than 20 is denoted as A) | A (a compound having 10 or more and less than 20 is denoted as A)
CCOC[C@H]1C(=O)N[C@@H]([C@@H](C)CC)C(=O)N(C)CC(=O)N(C)[C@H]2C/C=C\CCN(C2=O)[C@@H](CC2CCC(F)(F)CC2)C(=O)N(C)CC(=O)N[C@@H](CCc2cc(F)c(C(F)(F)F)c(F)c2)C(=O)N2C[C@H](OCC)C[C@H]2C(=O)NC2(CC(C)(C)C2)C(=O)N(C)[C@@H](C(CC)CC)C(=O)N(C)[C@H](C(=O)N(C)C)CC(=O)N1C [PP2450] | 29.2 | 0.55 | A (a compound having 10 or more and less than 20 is denoted as A) | A (a compound having 10 or more and less than 20 is denoted as A)
CCO[C@@H]1C[C@H]2C(=O)NC3(CC(C)(C)C3)C(=O)N(C)[C@@H](C(CC)CC)C(=O)N(C)[C@H](C(=O)N(C)C)CC(=O)N(C)[C@@H](COC)C(=O)N[C@@H]([C@@H](C)CC)C(=O)N(C)CC(=O)N(C)[C@H]3C/C=C\CCN(C3=O)[C@@H](CC3CCCCC3)C(=O)N(C)CC(=O)N[C@@H](CCc3ccc(C(F)(F)F)c(OC)c3)C(=O)N2C1 [PP2452] | 43.4 | 1.5 | A (a compound having 10 or more and less than 20 is denoted as A) | A (a compound having 10 or more and less than 20 is denoted as A)
CCC(CC)[C@H]1C(=O)N(C)[C@H](C(=O)N(C)C)CC(=O)N(C)[C@@H](COC)C(=O)N[C@@H]([C@@H](C)CC)C(=O)N(C)CC(=O)N(C)[C@H]2C/C=C\CCN(C2=O)[C@@H](CC2CCC(F)(F)CC2)C(=O)N(C)CC(=O)N[C@@H](CCc2ccc(C(F)(F)F)c(Cl)c2)C(=O)N2C[C@@H](C)C[C@H]2C(=O)NC2(CC(C)(C)C2)C(=O)N1C [PP2454] | 80.2 | 1.2 | A (a compound having 10 or more and less than 20 is denoted as A) | AA (a compound having 20 or more is denoted as AA)
CC[C@H](C)[C@@H]1NC(=O)[C@H](COC)N(C)C(=O)C[C@@H](C(=O)N(CC)CC)N(C)C(=O)[C@H](C2CCCC2)N(C)C(=O)C2(CC(C)(C)C2)NC(=O)[C@@H]2C[C@H](C)CN2C(=O)[C@H](CCc2cc(F)c(C(F)(F)F)c(F)c2)NC(=O)CN(C)C(=O)[C@H](Cc2ccc(C)cc2)N2CC/C=C\C[C@@H](C2=O)N(C)C(=O)CN(C)C1=O [PP2455] | 23.4 | 0.32 | A (a compound having 10 or more and less than 20 is denoted as A) | AA (a compound having 20 or more is denoted as AA)
CCO[C@@H]1C[C@H]2C(=O)NC3(CC(C)(C)C3)C(=O)N(C)[C@@H](C(CC)CC)C(=O)N(C)[C@H](C(=O)N(C)C)CC(=O)N(C)[C@@H](COC)C(=O)N[C@@H]([C@@H](C)CC)C(=O)N(C)CC(=O)N(C)[C@H]3C/C=C\CCN(C3=O)[C@@H](CC3CCCCC3)C(=O)N(C)CC(=O)N[C@@H](CCc3cc(F)c(C(F)(F)F)c(F)c3)C(=O)N2C1 [PP2456] | 18.8 | 1.1 | A (a compound having 10 or more and less than 20 is denoted as A) | A (a compound having 10 or more and less than 20 is denoted as A)
CCOC[C@H]1C(=O)N[C@@H]([C@@H](C)CC)C(=O)N(C)CC(=O)N(C)[C@H]2C/C=C\CCN(C2=O)[C@@H](Cc2ccc(C)cc2)C(=O)N(C)CC(=O)N[C@@H](CCc2cc(F)c(C(F)(F)F)c(F)c2)C(=O)N2C[C@@H](C)C[C@H]2C(=O)NC2(CC(C)(C)C2)C(=O)N(C)[C@@H](C2CCCC2)C(=O)N(C)[C@H](C(=O)N(C)CC)CC(=O)N1C [PP2457] | 13.3 | 0.17 | A (a compound having 10 or more and less than 20 is denoted as A) | A (a compound having 10 or more and less than 20 is denoted as A)

Compounds with a lower IC50 [2], results first:

IC50 [2] [nM] | Kd [3] [nM] | Structure (SMILES) | HRAS/KRAS (ratio of KD value for HRAS to KD value for KRAS) [1] | NRAS/KRAS (ratio of KD value for NRAS to KD value for KRAS) [4]
11.7 | 0.14 | CCOC[C@H]1C(=O)N[C@@H]([C@@H](C)CC)C(=O)N(C)CC(=O)N(C)[C@H]2C/C=C\CCN(C2=O)[C@@H](Cc2ccc(C)cc2)C(=O)N(C)CC(=O)N[C@@H](CCc2ccc(C(F)(F)F)c(OC)c2)C(=O)N2C[C@H](OCC)C[C@H]2C(=O)NC2(CC(C)(C)C2)C(=O)N(C)[C@@H](C2CCCC2)C(=O)N(C)[C@H](C(=O)N(C)CC)CC(=O)N1C [PP2445] | B (a compound having 3 or more and less than 10 is denoted as B) | A (a compound having 10 or more and less than 20 is denoted as A)
8.6 | 0.11 | CCCOC[C@H]1C(=O)N[C@@H]([C@@H](C)CC)C(=O)N(C)CC(=O)N(C)[C@H]2C/C=C\CCN(C2=O)[C@@H](Cc2ccc(C)cc2)C(=O)N(C)CC(=O)N[C@@H](CCc2ccc(C(F)(F)F)c(OC)c2)C(=O)N2C[C@@H](C)C[C@H]2C(=O)NC2(CC(C)(C)C2)C(=O)N(C)[C@@H](C2CCCC2)C(=O)N(C)[C@H](C(=O)N(C)C)CC(=O)N1C [PP2447] | B (a compound having 3 or more and less than 10 is denoted as B) | A (a compound having 10 or more and less than 20 is denoted as A)
7.8 | 0.061 | CCCOC[C@H]1C(=O)N[C@@H]([C@@H](C)CC)C(=O)N(C)CC(=O)N(C)[C@H]2C/C=C\CCN(C2=O)[C@@H](Cc2ccc(C)cc2)C(=O)N(C)CC(=O)N[C@@H](CCc2ccc(C(F)(F)F)c(OC)c2)C(=O)N2C[C@H](OCC)C[C@H]2C(=O)NC2(CC(C)(C)C2)C(=O)N(C)[C@@H](C2CCCC2)C(=O)N(C)[C@H](C(=O)N(C)C)CC(=O)N1C [PP2449] | A (a compound having 10 or more and less than 20 is denoted as A) | A (a compound having 10 or more and less than 20 is denoted as A)
8.6 | 0.17 | CCOC[C@H]1C(=O)N[C@@H]([C@@H](C)CC)C(=O)N(C)CC(=O)N(C)[C@H]2C/C=C\CCN(C2=O)[C@@H](Cc2ccc(C)cc2)C(=O)N(C)CC(=O)N[C@@H](CCc2ccc(C(F)(F)F)c(Cl)c2)C(=O)N2C[C@@H](C)C[C@H]2C(=O)NC2(CC(C)(C)C2)C(=O)N(C)[C@@H](C2CCCC2)C(=O)N(C)[C@H](C(=O)N(C)CC)CC(=O)N1C [PP2451] | A (a compound having 10 or more and less than 20 is denoted as A) | A (a compound having 10 or more and less than 20 is denoted as A)
9.2 | 0.09 | CCCOC[C@H]1C(=O)N[C@@H]([C@@H](C)CC)C(=O)N(C)CC(=O)N(C)[C@H]2C/C=C\CCN(C2=O)[C@@H](Cc2ccc(C)cc2)C(=O)N(C)CC(=O)N[C@@H](CCc2ccc(C(F)(F)F)c(Cl)c2)C(=O)N2C[C@@H](C)C[C@H]2C(=O)NC2(CC(C)(C)C2)C(=O)N(C)[C@@H](C2CCCC2)C(=O)N(C)[C@H](C(=O)N(C)C)CC(=O)N1C [PP2453] | A (a compound having 10 or more and less than 20 is denoted as A) | A (a compound having 10 or more and less than 20 is denoted as A)
